Experimental data: article PMC10178848, “Modulating fast skeletal muscle contraction protects skeletal muscle in animal models of Duchenne muscular dystrophy” (The Journal of Clinical Investigation, 2023)
Like-named read-outs stand apart in the source and are kept apart here.

Columns and labels:
[1] = target: T1, ROCK2 (Homo sapiens, UniProt O75116); experiment: KINOMEscan scanEDGE; format: binding; settings: 20 uM
T1 construct: purchased Eurofins DiscoverX (KINOMEscan; SAFETYscan E/IC50 ELECT)

[2] = target: T2, TRKA (Homo sapiens, UniProt P04629); experiment: KINOMEscan scanEDGE; format: binding; settings: 20 uM
T2 construct: purchased Eurofins DiscoverX (KINOMEscan; SAFETYscan E/IC50 ELECT)

[3] = target: T3, IGF1R (Homo sapiens, UniProt P08069); experiment: KINOMEscan scanEDGE; format: binding; settings: 20 uM
T3 construct: purchased Eurofins DiscoverX (KINOMEscan; SAFETYscan E/IC50 ELECT)

[4] = target: T4, JNK1 (Homo sapiens, UniProt P45983); experiment: KINOMEscan scanEDGE; format: binding; settings: 20 uM
T4 construct: purchased Eurofins DiscoverX (KINOMEscan; SAFETYscan E/IC50 ELECT)

[5] = target: T5, NAV1.5 (Homo sapiens, UniProt Q14524); experiment: SAFETYscan Ion Channel; format: cell-based; design: dose or concentration left out as unconfirmed; settings: read-out: Max Response (%) (Antagonist)
T5 construct: purchased Eurofins DiscoverX (KINOMEscan; SAFETYscan E/IC50 ELECT)
Experimental: (§1) The specificity of EDG-5506 for fast skeletal myosin over other, unrelated proteins was confirmed using two off-target binding and activity screens. […] A second off-target panel (SAFETYscan E/IC50 ELECT, Eurofins DiscoverX) tested in vitro enzyme activity against 78 proteins, including GPCR, ion channel, kinases, nuclear hormone receptors, and transporters. In all assays, the IC50 of EDG-5506 was more than 10 μM (Supplemental Data File 1).

[6] = target: T6, NMDAR (1A/2B) (Homo sapiens, UniProt Q05586+Q13224); experiment: SAFETYscan Ion Channel; format: cell-based; design: dose or concentration left out as unconfirmed
T6 construct: purchased Eurofins DiscoverX (KINOMEscan; SAFETYscan E/IC50 ELECT)
T6 sequence (Q13224 27-1484, other chains not shown): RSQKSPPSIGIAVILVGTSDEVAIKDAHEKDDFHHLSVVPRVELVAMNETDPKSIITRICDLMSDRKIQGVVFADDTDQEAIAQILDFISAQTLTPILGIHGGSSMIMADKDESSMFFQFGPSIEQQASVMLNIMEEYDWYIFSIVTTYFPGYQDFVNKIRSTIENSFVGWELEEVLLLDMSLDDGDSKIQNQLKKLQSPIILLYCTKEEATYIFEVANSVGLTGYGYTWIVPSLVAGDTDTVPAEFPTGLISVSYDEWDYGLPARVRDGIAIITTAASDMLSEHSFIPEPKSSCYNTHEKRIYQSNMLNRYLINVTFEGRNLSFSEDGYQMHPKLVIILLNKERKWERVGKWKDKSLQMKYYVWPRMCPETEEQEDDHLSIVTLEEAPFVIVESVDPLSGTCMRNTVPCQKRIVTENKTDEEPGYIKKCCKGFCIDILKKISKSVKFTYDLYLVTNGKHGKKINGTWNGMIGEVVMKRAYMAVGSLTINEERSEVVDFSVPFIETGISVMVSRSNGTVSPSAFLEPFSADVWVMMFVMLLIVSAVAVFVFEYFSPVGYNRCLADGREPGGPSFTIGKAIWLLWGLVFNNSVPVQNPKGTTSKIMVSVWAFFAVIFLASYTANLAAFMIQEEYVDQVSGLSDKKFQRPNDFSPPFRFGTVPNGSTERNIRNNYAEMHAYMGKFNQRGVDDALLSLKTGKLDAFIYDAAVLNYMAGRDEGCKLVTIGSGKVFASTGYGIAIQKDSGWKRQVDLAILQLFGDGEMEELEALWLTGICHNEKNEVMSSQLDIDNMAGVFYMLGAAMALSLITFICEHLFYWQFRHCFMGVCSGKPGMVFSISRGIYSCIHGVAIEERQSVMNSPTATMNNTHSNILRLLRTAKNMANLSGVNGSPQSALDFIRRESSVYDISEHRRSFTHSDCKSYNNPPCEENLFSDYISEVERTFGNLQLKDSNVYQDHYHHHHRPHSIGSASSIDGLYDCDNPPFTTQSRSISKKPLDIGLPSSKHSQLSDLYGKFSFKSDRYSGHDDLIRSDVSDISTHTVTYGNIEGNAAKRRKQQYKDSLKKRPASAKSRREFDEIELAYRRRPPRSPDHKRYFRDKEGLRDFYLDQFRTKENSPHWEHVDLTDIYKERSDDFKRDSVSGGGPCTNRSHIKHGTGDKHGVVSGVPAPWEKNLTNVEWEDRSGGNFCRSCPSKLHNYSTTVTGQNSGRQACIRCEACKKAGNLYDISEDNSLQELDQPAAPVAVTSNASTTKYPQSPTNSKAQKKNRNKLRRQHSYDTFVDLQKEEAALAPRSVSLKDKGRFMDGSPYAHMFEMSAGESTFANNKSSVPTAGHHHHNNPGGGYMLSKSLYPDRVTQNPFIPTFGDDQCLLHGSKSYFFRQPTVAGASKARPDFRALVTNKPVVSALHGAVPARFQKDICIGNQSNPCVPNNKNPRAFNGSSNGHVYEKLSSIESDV
Experimental: as §1

[7] = target: T7, CAV1.2 (Homo sapiens, UniProt Q13936); experiment: SAFETYscan Ion Channel; format: cell-based; design: dose or concentration left out as unconfirmed; settings: read-out: Max Response (%) (Agonist)
T7 construct: purchased Eurofins DiscoverX (KINOMEscan; SAFETYscan E/IC50 ELECT)
Experimental: as §1

[8] = target: T8, hERG (Homo sapiens, UniProt Q12809); experiment: SAFETYscan Ion Channel; format: cell-based; design: dose or concentration left out as unconfirmed; settings: read-out: Max Response (%) (Agonist)
T8 construct: purchased Eurofins DiscoverX (KINOMEscan; SAFETYscan E/IC50 ELECT)
Experimental: as §1

[9] = target: T9, KvLQT1/minK (Homo sapiens, UniProt P51787); experiment: SAFETYscan Ion Channel; format: cell-based; design: dose or concentration left out as unconfirmed
T9 construct: purchased Eurofins DiscoverX (KINOMEscan; SAFETYscan E/IC50 ELECT)
Experimental: as §1

[10] = target: T10, HTR3A (Homo sapiens, UniProt P46098); experiment: SAFETYscan Ion Channel; format: cell-based; design: dose or concentration left out as unconfirmed
T10 construct: purchased Eurofins DiscoverX (KINOMEscan; SAFETYscan E/IC50 ELECT)
T10 sequence (P46098 24-478): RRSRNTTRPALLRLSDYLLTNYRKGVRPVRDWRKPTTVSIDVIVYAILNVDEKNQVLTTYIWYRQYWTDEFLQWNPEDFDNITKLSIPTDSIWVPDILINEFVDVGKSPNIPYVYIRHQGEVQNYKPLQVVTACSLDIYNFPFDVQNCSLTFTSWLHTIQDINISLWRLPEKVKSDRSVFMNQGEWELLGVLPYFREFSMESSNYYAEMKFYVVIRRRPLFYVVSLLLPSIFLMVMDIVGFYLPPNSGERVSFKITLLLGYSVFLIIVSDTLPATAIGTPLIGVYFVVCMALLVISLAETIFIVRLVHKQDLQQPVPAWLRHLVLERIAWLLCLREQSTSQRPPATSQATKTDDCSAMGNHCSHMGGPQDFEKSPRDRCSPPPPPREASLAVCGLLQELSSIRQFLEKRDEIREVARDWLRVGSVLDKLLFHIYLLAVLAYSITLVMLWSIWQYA
Experimental: as §1

[11] = target: T11, nAChR(a4/b2) (Homo sapiens, UniProt P17787+P43681); experiment: SAFETYscan Ion Channel; format: cell-based; design: dose or concentration left out as unconfirmed
T11 construct: purchased Eurofins DiscoverX (KINOMEscan; SAFETYscan E/IC50 ELECT)
T11 sequence (P43681 29-627 limits assumed): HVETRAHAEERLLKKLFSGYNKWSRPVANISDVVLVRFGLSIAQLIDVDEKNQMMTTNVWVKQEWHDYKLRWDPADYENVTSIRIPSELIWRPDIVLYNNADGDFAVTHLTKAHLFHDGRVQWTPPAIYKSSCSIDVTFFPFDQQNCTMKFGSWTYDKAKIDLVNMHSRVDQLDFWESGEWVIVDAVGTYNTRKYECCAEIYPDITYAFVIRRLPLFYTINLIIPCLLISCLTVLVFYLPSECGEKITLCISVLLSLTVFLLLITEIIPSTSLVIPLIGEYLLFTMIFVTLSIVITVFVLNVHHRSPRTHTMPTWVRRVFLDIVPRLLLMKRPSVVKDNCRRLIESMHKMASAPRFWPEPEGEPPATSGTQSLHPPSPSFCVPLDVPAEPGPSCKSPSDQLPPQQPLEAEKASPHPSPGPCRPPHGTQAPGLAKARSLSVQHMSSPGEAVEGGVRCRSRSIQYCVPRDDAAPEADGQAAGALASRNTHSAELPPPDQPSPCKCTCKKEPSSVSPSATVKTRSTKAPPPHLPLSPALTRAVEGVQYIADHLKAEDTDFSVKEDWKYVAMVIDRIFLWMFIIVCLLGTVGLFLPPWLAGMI
T11 sequence (P17787 26-502): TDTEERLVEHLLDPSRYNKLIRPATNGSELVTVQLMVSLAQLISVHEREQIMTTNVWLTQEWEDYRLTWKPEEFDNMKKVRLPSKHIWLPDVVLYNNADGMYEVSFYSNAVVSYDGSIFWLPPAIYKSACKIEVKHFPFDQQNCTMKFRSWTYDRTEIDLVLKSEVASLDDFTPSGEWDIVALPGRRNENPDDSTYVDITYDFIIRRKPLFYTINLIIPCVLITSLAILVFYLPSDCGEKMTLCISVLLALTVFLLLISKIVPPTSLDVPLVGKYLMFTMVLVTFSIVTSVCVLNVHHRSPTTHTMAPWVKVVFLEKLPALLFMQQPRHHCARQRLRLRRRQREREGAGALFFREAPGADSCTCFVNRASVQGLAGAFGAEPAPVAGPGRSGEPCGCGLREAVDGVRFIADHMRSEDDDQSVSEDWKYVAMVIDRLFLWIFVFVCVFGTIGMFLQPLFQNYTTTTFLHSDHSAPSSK
Experimental: as §1

[12] = target: T12, TGFBR1 (Homo sapiens, UniProt P36897); experiment: KINOMEscan scanEDGE; format: binding; settings: 20 uM
T12 construct: purchased Eurofins DiscoverX (KINOMEscan; SAFETYscan E/IC50 ELECT)

[13] = target: T13, LCK (Homo sapiens, UniProt P06239); experiment: SAFETYscan Binding; design: dose or concentration left out as unconfirmed; settings: read-out: Max Response (%) (Antagonist)
T13 construct: purchased Eurofins DiscoverX (KINOMEscan; SAFETYscan E/IC50 ELECT)
T13 sequence (P06239 whole entry): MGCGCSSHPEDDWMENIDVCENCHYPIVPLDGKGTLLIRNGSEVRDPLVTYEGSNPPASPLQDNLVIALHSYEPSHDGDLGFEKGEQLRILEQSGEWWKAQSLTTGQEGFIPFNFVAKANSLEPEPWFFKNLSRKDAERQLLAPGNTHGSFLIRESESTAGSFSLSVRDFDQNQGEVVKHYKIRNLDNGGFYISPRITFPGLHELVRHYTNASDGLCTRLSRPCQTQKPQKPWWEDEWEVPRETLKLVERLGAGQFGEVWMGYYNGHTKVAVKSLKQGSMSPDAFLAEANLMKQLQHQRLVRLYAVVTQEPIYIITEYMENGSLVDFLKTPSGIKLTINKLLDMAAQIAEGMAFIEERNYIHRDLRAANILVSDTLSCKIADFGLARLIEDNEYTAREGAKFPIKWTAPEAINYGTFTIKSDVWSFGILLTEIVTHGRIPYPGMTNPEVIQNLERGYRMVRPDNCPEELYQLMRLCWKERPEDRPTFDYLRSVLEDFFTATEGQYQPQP
Experimental: as §1

[14] = target: T14, ROCK1 (Homo sapiens, UniProt Q13464); experiment: SAFETYscan Binding; design: dose or concentration left out as unconfirmed; settings: read-out: Max Response (%) (Antagonist)
T14 construct: purchased Eurofins DiscoverX (KINOMEscan; SAFETYscan E/IC50 ELECT)
Experimental: as §1

[15] = target: T15, INSR (Homo sapiens, UniProt P06213); experiment: SAFETYscan Binding; design: dose or concentration left out as unconfirmed; settings: read-out: Max Response (%) (Antagonist)
T15 construct: purchased Eurofins DiscoverX (KINOMEscan; SAFETYscan E/IC50 ELECT)
T15 sequence (P06213 28-1382): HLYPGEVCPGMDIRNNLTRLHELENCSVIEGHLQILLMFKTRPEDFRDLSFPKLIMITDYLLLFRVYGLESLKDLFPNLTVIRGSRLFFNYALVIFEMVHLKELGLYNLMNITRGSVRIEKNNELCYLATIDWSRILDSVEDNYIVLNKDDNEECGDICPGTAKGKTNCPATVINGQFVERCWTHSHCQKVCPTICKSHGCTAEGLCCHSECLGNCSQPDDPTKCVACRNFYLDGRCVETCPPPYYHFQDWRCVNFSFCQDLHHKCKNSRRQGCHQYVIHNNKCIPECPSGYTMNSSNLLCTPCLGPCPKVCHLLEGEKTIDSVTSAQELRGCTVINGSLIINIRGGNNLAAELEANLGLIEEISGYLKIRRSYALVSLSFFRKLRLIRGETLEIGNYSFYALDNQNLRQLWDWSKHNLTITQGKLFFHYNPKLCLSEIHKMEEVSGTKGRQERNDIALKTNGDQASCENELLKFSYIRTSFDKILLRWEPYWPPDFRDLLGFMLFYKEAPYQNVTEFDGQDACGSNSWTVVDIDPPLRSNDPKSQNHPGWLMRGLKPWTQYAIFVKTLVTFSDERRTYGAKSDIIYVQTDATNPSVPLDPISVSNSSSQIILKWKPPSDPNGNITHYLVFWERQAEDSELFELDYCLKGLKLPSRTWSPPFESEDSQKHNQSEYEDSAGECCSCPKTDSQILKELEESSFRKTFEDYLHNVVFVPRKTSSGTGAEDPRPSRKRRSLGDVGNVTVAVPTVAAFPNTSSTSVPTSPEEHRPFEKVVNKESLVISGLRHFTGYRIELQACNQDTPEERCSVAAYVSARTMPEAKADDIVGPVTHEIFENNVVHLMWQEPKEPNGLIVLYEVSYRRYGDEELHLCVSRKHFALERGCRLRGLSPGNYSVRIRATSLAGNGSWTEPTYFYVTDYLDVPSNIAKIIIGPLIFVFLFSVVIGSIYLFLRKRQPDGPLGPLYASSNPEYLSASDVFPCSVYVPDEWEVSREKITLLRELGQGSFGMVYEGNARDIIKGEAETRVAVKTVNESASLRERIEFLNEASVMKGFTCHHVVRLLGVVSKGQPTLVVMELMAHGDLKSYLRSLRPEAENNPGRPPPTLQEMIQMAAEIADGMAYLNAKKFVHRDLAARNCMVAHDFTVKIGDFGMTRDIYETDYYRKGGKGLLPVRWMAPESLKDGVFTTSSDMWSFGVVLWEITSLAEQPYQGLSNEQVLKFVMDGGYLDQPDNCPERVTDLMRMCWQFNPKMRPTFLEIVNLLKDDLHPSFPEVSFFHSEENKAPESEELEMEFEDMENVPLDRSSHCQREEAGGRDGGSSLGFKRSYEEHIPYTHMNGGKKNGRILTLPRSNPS
Experimental: as §1

[16] = target: T16, VEGFR2 (Homo sapiens, UniProt P35968); experiment: SAFETYscan Binding; design: dose or concentration left out as unconfirmed; settings: read-out: Max Response (%) (Antagonist)
T16 construct: purchased Eurofins DiscoverX (KINOMEscan; SAFETYscan E/IC50 ELECT)
Experimental: as §1

[17] = target: T15, INSR; experiment: KINOMEscan scanEDGE; format: binding; settings: 20 uM
[18] = target: T17, ERK1 (Homo sapiens, UniProt P27361); experiment: KINOMEscan scanEDGE; format: binding; settings: 20 uM
T17 construct: purchased Eurofins DiscoverX (KINOMEscan; SAFETYscan E/IC50 ELECT)

[19] = target: T18, AURKB (Homo sapiens, UniProt Q96GD4); experiment: KINOMEscan scanEDGE; format: binding; settings: 20 uM
T18 construct: purchased Eurofins DiscoverX (KINOMEscan; SAFETYscan E/IC50 ELECT)

[20] = target: T19, slow bovine masseter skeletal myofibrils (Bos taurus, UniProt Q9BE39); experiment: Myofibril ATPase, bovine masseter; format: biochemical; settings: 100% type I, at pCa50
T19 construct: from tissue; host or cells: bovine masseter muscle

[21] = target: T20, ZAP70 (Homo sapiens, UniProt P43403); experiment: KINOMEscan scanEDGE; format: binding; settings: 20 uM
T20 construct: purchased Eurofins DiscoverX (KINOMEscan; SAFETYscan E/IC50 ELECT)

[22] = target: T21, IKK-alpha (Homo sapiens, UniProt O15111); experiment: KINOMEscan scanEDGE; format: binding; settings: 20 uM
T21 construct: purchased Eurofins DiscoverX (KINOMEscan; SAFETYscan E/IC50 ELECT)

[23] = target: T22, BMPR2 (Homo sapiens, UniProt Q13873); experiment: KINOMEscan scanEDGE; format: binding; settings: 20 uM
T22 construct: purchased Eurofins DiscoverX (KINOMEscan; SAFETYscan E/IC50 ELECT)

[24] = target: T23, CDK11 (Homo sapiens, UniProt Q9BWU1); experiment: KINOMEscan scanEDGE; format: binding; settings: 20 uM
T23 construct: purchased Eurofins DiscoverX (KINOMEscan; SAFETYscan E/IC50 ELECT)

[25] = tested on: WT and mdx mice; experiment: Voluntary wheel running; format: in vivo, mouse; settings: 50 ppm chow
Experimental: (§2) Prior to in vivo assessments, mice were dosed PO after a 2-hour fast with 10 mL/Kg suspensions. Grip strength and rotarod assessments were performed masked, 4 hours after dosing using published protocols ([66], [67]). Grip strength was performed with a Columbus Instruments Rodent Force Meter. Forepaw strength represented the average of 5 trials with 30-second rest periods, normalized by BW. Rotarod endurance was performed with a Columbus Instruments RotaMax. Mice were placed on the device drum at 1 rpm, which accelerated 1 rpm every 3 seconds to 12 rpm and a maximal time of 500 seconds. This was repeated 3 times with a 3-minute rest and total time reported. Voluntary wheel running performance was assessed with a customized system. Timestamped RPMs were measured 24 hours per day by infrared sensors, and a custom software calculated distance. Whole-body EBD was visualized after intravenous administration ([35]). EBD in PBS at 10 mg/mL was sterile filtered, and 50 μL/10 g BW was injected via tail vein. After 24 hours, animals were sacrificed, skin was removed and fixed in 4% formalin for 24 hours, and photographed using a Leica/Lumix camera.

[26] = tested on: WT or mdx mice; experiment: Rotarod endurance; format: in vivo, mouse; settings: single doses up to 10 mg/kg, 4 hours after oral administration
Experimental: as §2

[27] = target: 78 proteins, including GPCR, ion channel, kinases, nuclear hormone receptors, and transporters; experiment: SAFETYscan E/IC50 ELECT off-target panel (whole panel); settings: read-out: IC50 in all SAFETYscan assays
Experimental: as §1

[28] = target: T24, MAPKAPK2 (Homo sapiens, UniProt P49137); experiment: KINOMEscan scanEDGE; format: binding; settings: 20 uM
T24 construct: purchased Eurofins DiscoverX (KINOMEscan; SAFETYscan E/IC50 ELECT)

[29] = target: T25, CDK2 (Homo sapiens, UniProt P24941); experiment: KINOMEscan scanEDGE; format: binding; settings: 20 uM
T25 construct: purchased Eurofins DiscoverX (KINOMEscan; SAFETYscan E/IC50 ELECT)

[30] = target: T26, RIOK2 (Homo sapiens, UniProt Q9BVS4); experiment: KINOMEscan scanEDGE; format: binding; settings: 20 uM
T26 construct: purchased Eurofins DiscoverX (KINOMEscan; SAFETYscan E/IC50 ELECT)

[31] = read-out: Max Response (%) (Agonist)
[32] = read-out: Max Response (%) (Antagonist)

In the case of O=c1ccc(-c2cnc(OCC(F)(F)F)nc2)nn1Cc1cncc(F)c1 [EDG-5506], the “binding, % of control” value [1] is reported as 89 % of control, the “binding, % of control” value [2] is reported as 98 % of control and the “binding, % of control” value [3] is reported as 94 % of control. For the same compound, the “binding, % of control” value [4] was 72 % of control, the Emax [5] was 2.32% and the Emax [6, 31] was 0%. It also gave an Emax [6, 32] of 0%, an Emax [7] of 26.5% and an Emax [8] of 13.1%. For the same compound, the Emax [9, 31] was 0%, the Emax [9, 32] was 18.6% and the Emax [10, 31] was 0.36%. The Emax [10, 32] was 8.58%, the Emax [11, 31] was 0% and the Emax [11, 32] was 0%. The “binding, % of control” value [12] was 100 % of control, the Emax [13] was 0% and the Emax [14] was 24.6%. The Emax [15] was 26.9%, the Emax [16] was 18.1% and the “binding, % of control” value [17] was 96 % of control. For the same compound, the “binding, % of control” value [18] was 100 % of control, the “binding, % of control” value [19] was 82 % of control and the IC50 [20] was over 100 µM. For the same compound, the “binding, % of control” value [21] was 85 % of control, the “binding, % of control” value [22] was 93 % of control and the “binding, % of control” value [23] was 99 % of control. For the same compound, the “binding, % of control” value [24] was 95 % of control, the wheel running [25] was “no effect” and the rotarod endurance [26] was “no effect”. The IC50 [27] was over 10 µM, the “binding, % of control” value [28] was 100 % of control and the “binding, % of control” value [29] was 100 % of control. For the same compound, the “binding, % of control” value [30] was 80 % of control.
